What was measured:
Type in all cases: cell-based
[1] = tested on: HEK293 cells overexpressing APOL1 G2; test: APOL1 G2 HEK293 cell rescue assay (reversal of cell death caused by overexpression of APOL1); details: geometric mean of at least 2 assay runs, † = single assay run
Summary of the method: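 Each compound tested in duplicate wells on one plate per run, with values usually the geometric mean across at least two runs on different days, occasionally from one run only. Read-out: concentration giving half-maximal rescue of APOL1 G2 overexpression-induced death of HEK293 cells.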

APOL1 G2 = target: T1, APOL1 G2 (Homo sapiens, UniProt O14791, DEL388-389); test: APOL1-mediated calcium transport (calcium influx) assay, HEK T-REx/GCaMP6f/APOL1 G2 K6.3 cells, FLIPR TETRA; details: prevention of calcium influx; geometric mean of at least 2 assay runs; † = average of a technical replicate from a single assay run
T1 construct: expressed in transfected cells; host or cells: HEK293 T-REx clonal line stably expressing GCaMP6f (HEK T-REx/GCaMP6f/APOL1 G2 K6.3), doxycycline induced
T1 sequence (O14791 with tags, fused parts or gaps DEL388-389): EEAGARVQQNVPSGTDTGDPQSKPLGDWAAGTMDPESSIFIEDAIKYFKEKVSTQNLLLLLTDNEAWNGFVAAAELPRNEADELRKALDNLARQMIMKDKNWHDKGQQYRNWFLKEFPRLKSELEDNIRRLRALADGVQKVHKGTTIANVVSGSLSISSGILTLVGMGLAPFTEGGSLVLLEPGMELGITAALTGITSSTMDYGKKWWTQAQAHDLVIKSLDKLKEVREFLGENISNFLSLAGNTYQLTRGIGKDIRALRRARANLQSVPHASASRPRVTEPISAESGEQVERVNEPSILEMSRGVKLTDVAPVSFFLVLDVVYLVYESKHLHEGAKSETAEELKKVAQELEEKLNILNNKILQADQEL
Protocol: A HEK293 clonal cell line was generated to stably express GCaMP6f, a genetically encoded calcium indicator, and inducibly express APOL1 G2 (HEK T-REx/GCaMP6f/APOL1 G2 K6.3). Cells were maintained in the following standard complete medium: DMEM with 4.5 g/L glucose and sodium pyruvate (BioWhittaker, Lonza, BE12-614F), supplemented with 10% FBS Performance Plus (Gibco, 16000044), 1% penicillin-streptomycin (BioWhittaker, DE17-602E), 2 mM ultraglutamine-1 (BioWhittaker cat. BE 17-605/U1), 50 μg/mL Zeocin (InvivoGen, ant-zn), 2.5 μg/mL Blasticidin (InvivoGen, ant-bl-5), and 25 μg/mL Hygromycin (InvivoGen, ant-hg). Standard propagation conditions consisted of plating 9×10^6, 4×10^6, 2×10^6 cells in a T225 flasks to be processed after 2, 3, or 4 days, respectively.
A source plate was generated containing 20 serially diluted compounds in DMSO (duplicate 8-point dose response). Next, 0.8 μL of compounds were transferred from the source plate to a destination plate prefilled with 79.2 μL of Ca^2+ free Tyrode's buffer (130 mM NaCl, 5 mM KCl, 1 mM MgCl2, 5 mM NaHCO3, 20 mM HEPES at pH 7.4). The destination plate was placed on a plate shaker (5 seconds at 2000 rpm) to mix. […] All transfer and mixing steps were conducted with an CyBi®-Well dispenser.
Cells were split by gently washing with DPBS (Euroclone, ECB4004L), followed by a 5-minute incubation (humidified, 37° C. with 5% CO2) with trypsin-EDTA solution (Euroclone, ECB3052D). Detached cells were diluted with standard complete medium without selective agents, counted, and plated in a 384 MTP microplate (GR4332CPL, Twin Helix) (10,000 cells/well in 25 μl/well) using a MATRIX WellMate dispenser. Plates were placed into a humidified incubator (37° C. with 5% CO2) overnight. The following day, 20 μL of doxycycline (Sigma, D9891) at 20 ng/mL in standard complete medium was added to cells with a CyBi® Drop dispenser to induce APOL1 G2 expression. After a 6-hour incubation (humidified, 37° C. with 5% CO2), cells were washed 3 times with Ca^2+ free Tyrode's Buffer (130 mM NaCl, 5 mM KCl, 1 mM MgCl2, 5 mM NaHCO3, 20 mM HEPES at pH 7.4) using a BIOTEK Microplate washer, such that 10 μL of buffer remained in each well after the final wash. Assay plates were then stored at room temperature for 10 minutes. Next, 10 μL of diluted compounds were transferred to the assay plate from the 2× compound plate using a CyBi®-Well dispenser. Compound incubation was then carried out at room temperature for 10 minutes. The assay plate was transferred to the FLIPR^TETRA and 20 μL of 10 mM Ca^2+ (final concentration=5 mM) Tyrode's buffer was injected.
Unless otherwise specified, AC50 and values are reported as the geometric mean of at least 2 assay runs on separate days. Each run represents the average of a technical replicate, where each compound was assayed twice in the same plate. A superscript t symbol indicates a value from the average of a technical replicate from a single assay run, where each compound was assayed twice in the same plate.
The AC50 values in Table 39 below reflect the compound's ability to prevent calcium influx by inhibiting APOL1. […] Compounds in Table 39 are referred to by the corresponding Compound Number in Table 1, which is also referred to in the synthetic examples. When one or more of the numbered compounds are identified by stereochemistry (for example, (R)- or (S)-), the specific stereoisomer for which data is provided in Table 39 may be identified by the elution order of such compound as described in the synthetic examples. For example, Compounds 39 and 40 are associated with Step 5 of Example 13, where Compound 39 is the first eluting enantiomer, and Compound 40 is the second eluting enantiomer in the chiral separation of Compound 38. For Table 39 below, n/a represents “not available”.

[2] = tested on: HEK293 clonal cell line overexpressing APOL1 G1; test: APOL1 G1 HEK293 cell rescue assay (Example B3); details: geometric mean of at least 2 runs, † = single run, ¥ = concentration at 50% rescue estimated (no sigmoidal curve)
Summary of the method: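 Rescue of cell death caused by APOL1 G1 overexpression was measured in a clonal HEK293 line. Compounds were tested in duplicate on one plate, and EC50s were geometric means across at least two runs on different days. Some values are estimated 50%-rescue concentrations where curve fitting failed.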

[3] = Homo sapiens, HEK293, HEK293 overexpressing APOL1 G2
[4] = Homo sapiens, HEK293, HEK293 clonal line overexpressing APOL1 G1

Row | SMILES | EC50 ([1]; HEK293 overexpressing APOL1 G2) [nM] | AC50 (APOL1 G2) [nM] | EC50 ([2]; HEK293 clonal line overexpressing APOL1 G1) [nM] | EC50 [1, 3] [nM] | EC50 [2, 4] [nM]
1 | CC(COc1ccc(S(C)(=O)=O)cc1)N1CCC2(CC1)C(=O)N(C1CC(O)C1)c1ccc(Cl)cc12 (single isomer, unassigned) [Compound 209, 5-chloro-1′-[(2R) or (2S)-1-(4-methanesulfonylphenoxy)propan-2-yl]-1-[(trans) or (cis)-3-hydroxycyclobutyl]-1,2-dihydrospiro[indole-3,4′-piperidin]-2-one] | 3070 | 1240 | > 2840 |  | 
2 | CN1C(=O)C2(CCN(CCOc3ccc4nccnc4c3)CC2)c2ccccc21 [Compound 34, 1-methyl-1′-[2-(quinoxalin-6-yloxy)ethyl]-1,2-dihydrospiro[indole-3,4′-piperidin]-2-one] |  | 168 |  | 1330 | > 1960
3 | CS(=O)(=O)c1ccc(OCCN2CCC3(CC2)C(=O)Nc2c(Cl)cc(C#N)cc23)cc1 [Compound 8, 7-chloro-1′-[2-(4-methanesulfonylphenoxy)ethyl]-2-oxo-1,2-dihydrospiro[indole-3,4′-piperidine]-5-carbonitrile] |  | 833 |  | 598 | 1440
4 | CC(COc1ccc2c(c1)CCC(=O)N2C)N1CCC2(CC1)C(=O)Nc1ccc(Cl)cc12 (stereo not drawn) [Compound 199, 5-chloro-1′-{1-[(1-methyl-2-oxo-1,2,3,4-tetrahydroquinolin-6-yl)oxy]propan-2-yl}-1,2-dihydrospiro[indole-3,4′-piperidin]-2-one] |  | 1130 |  | 148 | 312
5 | C[C@]1(O)C[C@@H](n2cnc3cc(OCCN4CCC5(CC4)C(=O)Nc4ccc(C#N)cc45)cc(OC(F)F)c32)C1 [Compound 448, 1′-(2-{[7-(difluoromethoxy)-1-[(cis)-3-hydroxy-3-methylcyclobutyl]-1H-1,3-benzodiazol-5-yl]oxy}ethyl)-2-oxo-1,2-dihydrospiro[indole-3,4′-piperidine]-5-carbonitrile] |  | 1140 |  | 112 | 687
6 | [2H]C([2H])([2H])N1C(=O)C2(CCN(CCOc3ccc(C4(S(C)(=O)=O)CCC4)cc3)CC2)c2cc(Cl)ccc21 [Compound 415, 5-chloro-1′-{2-[4-(1-methanesulfonylcyclobutyl)phenoxy]ethyl}-1-(^2H3)methyl-1,2-dihydrospiro[indole-3,4′-piperidin]-2-one] |  | 319 |  | 20.3 | 69.2
7 | CC(c1ccc(OCCN2CCC3(CC2)C(=O)Nc2ccc(C#N)cc23)cc1)S(C)(=O)=O (stereo not drawn) [Compound 133, 1′-{2-[4-(1-methanesulfonylethyl)phenoxy]ethyl}-2-oxo-1,2-dihydrospiro[indole-3,4′-piperidine]-5-carbonitrile] |  | 671 |  | 203 | 885
8 | C[C@]1(O)C[C@@H](n2cnc3cc(OCCN4CCC5(CC4)C(=O)Nc4ccc(C#N)cc45)cc(C(F)F)c32)C1 [Compound 446, 1′-(2-{[7-(difluoromethyl)-1-[(cis)-3-hydroxy-3-methylcyclobutyl]-1H-1,3-benzodiazol-5-yl]oxy}ethyl)-2-oxo-1,2-dihydrospiro[indole-3,4′-piperidine]-5-carbonitrile] |  | 1180 |  | 33.2 | 82.5
9 | CS(=O)(=O)c1ccc(OCCN2CCC3(CC2)C(=O)Nc2ccccc23)cc1 [Compound 73, 1′-[2-(4-methanesulfonylphenoxy)ethyl]-1,2-dihydrospiro[indole-3,4′-piperidin]-2-one] |  | 161 |  | 527 | 3520
10 | CN1C(=O)C2(CCN(CCOc3ccc4ncn(C)c(=O)c4c3)CC2)c2ccccc21 [Compound 29, 1-methyl-1′-{2-[(3-methyl-4-oxo-3,4-dihydroquinazolin-6-yl)oxy]ethyl}-1,2-dihydrospiro[indole-3,4′-piperidin]-2-one] |  | 586 |  | 1420 | 5560
11 | CNC(=O)c1ccc(OCCN2CCC3(CC2)C(=O)Nc2ccc(Cl)cc23)cc1 [Compound 52, 4-(2-{5-chloro-2-oxo-1,2-dihydrospiro[indole-3,4′-piperidin]-1′-yl}ethoxy)-N-methylbenzamide] |  | 615 |  | 214 | 1060
12 | N#Cc1ccc2c(c1)C1(CCN(CCOc3ccc4c(c3)CCN3C(=O)NCC43)CC1)C(=O)N2 (single isomer, unassigned) [Compound 119, (S) or (R)-2-oxo-1′-[2-({3-oxo-1H,2H,3H,5H,6H,10bH-imidazo[4,3-a]isoquinolin-8-yl}oxy)ethyl]-1,2-dihydrospiro[indole-3,4′-piperidine]-5-carbonitrile] |  | 1010 |  | 435 | ~3400
13 | CNC(=O)N1CCc2cc(OCCN3CCC4(CC3)C(=O)Nc3ccc(C#N)cc34)ccc2C1 [Compound 246, 6-(2-{5-cyano-2-oxo-1,2-dihydrospiro[indole-3,4′-piperidin]-1′-yl}ethoxy)-N-methyl-1,2,3,4-tetrahydroisoquinoline-2-carboxamide] |  | 1340 |  | 562 | 4860
14 | CS(=O)(=O)Nc1ccc(OCCN2CCC3(CC2)C(=O)N(CCO)c2ccc(Cl)cc23)cc1C(F)(F)F [Compound 186, N-(4-{2-[5-chloro-1-(2-hydroxyethyl)-2-oxo-1,2-dihydrospiro[indole-3,4′-piperidin]-1′-yl]ethoxy}-2-(trifluoromethyl)phenyl)methanesulfonamide] |  | 524 |  | 35.9 | 98.8
15 | O=C1NCC2c3ccc(OCCN4CCC5(CC4)C(=O)Nc4ccc(Cl)cc45)cc3CCN12 (stereo not drawn) [Compound 115, 5-chloro-1′-[2-({3-oxo-1H,2H,3H,5H,6H,10bH-imidazo[4,3-a]isoquinolin-8-yl}oxy)ethyl]-1,2-dihydrospiro[indole-3,4′-piperidin]-2-one] |  | 472 |  | 94.9 | 199

From patent publication US12344610B2, “APOL1 inhibitors and methods of use” (Maze Therapeutics, Inc., priority 2022, dated 2025)
